Laboratory results published in patent US8143031B2, “Production of N-acylated sulphur-containing amino acids with microorganisms having enhanced N-acyltransferase enzymatic activity” (Metabolic Explorer, priority 2008, dated 2012).

How the values were obtained:
YncA = target: T1, YncA (Escherichia coli, UniProt P76112); assay: DTNB-based substrate and acyl-donor specificity test of YncA; format: biochemical, E. coli; settings: for % Activity (activity of YncA with respect to the co-substrate Acetyl-coA): Acetyl-coA = 100; for % Activity (activity with respect to the substrate methionine): methionine = 100; for Activity as substrate of YncA (in words): DTNB-based assay
T1 construct: The purified protein was identified as YncA, a GCN5 related acyl transferase; made in house; host or cells: Untagged endogenous activity purified chromatographically from broken cells; E. coli is inferred
Protocol: (§1) Methionine L-amino-acid-N-acyl transferase activity was followed in microtiter plates by monitoring the apparition of HS-CoA with DTNB. The reaction solution, to which the sample was added, contained 200 mM Tris-HCl, pH 9.0, […], 3 mM Acetyl-coA and 20 mM methionine. Formation of the DTNB-CoA complex was monitored at 408 nm using a μQuant microtiter plate reader (BioTek Instruments, Inc., USA).
The substrate specificity was tested using the DTNB-based assay (see above).

[1] = target: Pseudomonas PA4866 protein (Pseudomonas aeruginosa, UniProt Q9HUU7); settings: cited from earlier work
Sequence of Pseudomonas PA4866 protein (Q9HUU7 whole entry): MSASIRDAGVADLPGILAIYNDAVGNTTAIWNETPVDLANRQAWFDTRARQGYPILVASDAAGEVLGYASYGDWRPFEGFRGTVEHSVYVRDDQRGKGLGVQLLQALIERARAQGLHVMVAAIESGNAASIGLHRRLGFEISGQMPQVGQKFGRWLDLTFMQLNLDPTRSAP

[2] = compared with the L-isomer; cited from earlier work
[3] = compared with pure methionine; cited from earlier work
[4] = MNAT activity test in vitro of purification fractions (DTNB, acetyl-coA, methionine); format: biochemical, E. coli; settings: purification steps
Protocol: as §1
˜3 g of dry weight cells were rinsed 3 times with extraction buffer (EB) (50 mM phosphate, pH 7.0, 50 μM PLP, 500 μM DTT) and suspended in 70 mL EB. Cells were broken by sonication using a Rosett cell with a Bandelin Sonoplus ultrasonic homogenizer (Bandelin Electronic, Germany) equipped with a UW2070 probe and a SH70G tip (6 burst, 30 s, 100% efficiency, 75 W). The crude extract was centrifuged (30 min, 12.000 g, 4° C.) and solid ammonium sulfate was added to the supernatant to a final concentration of 2.3 M, and incubated on ice for 30 min. The solution was centrifuged (15 min, 15.000 g, 4° C.) and the pellet suspended in 40 mL phosphate buffer (50 mM phosphate, pH 7.0). Solid ammonium sulfate was added to a final concentration of 1.5 M, and the solution was incubated on ice for 30 min and then centrifuged (15 min, 15.000 g, 4 C). […]

[5] = methionine as substrate, various acyl-donors
[6] = Acetyl-coA as acyl-donor, various substrates

| Molecule | % Activity (activity with respect to the substrate methionine) (YncA; Acetyl-coA as acyl-donor) [%] | Specific Activity (YncA; [6]) [mUI/mg protein] | Activity as substrate of YncA (in words) (YncA) | further results |
| --- | --- | --- | --- | --- |
| CC(=O)SCCNC(=O)CCNC(=O)[C@H](O)C(C)(C)COP(=O)(O)OP(=O)(O)OC[C@H]1O[C@@H](n2cnc3c(N)ncnc32)[C@H](O)[C@@H]1OP(=O)(O)O [Acetyl-coA] |  |  |  | Activity as acyl-donor of YncA (in words) (YncA; methionine as substrate): worked properly as an acyl donor; % Activity (activity of YncA with respect to the co-substrate Acetyl-coA) (YncA; methionine as substrate): 100%; Specific Activity (YncA; [5]): 745 mUI/mg protein |
| NC(=O)C[C@H](N)C(=O)O [Asparagine] | 2.4 | 18 | Weak activities |  |
| N[C@@H](CC(=O)O)C(=O)O [Aspartate] | 1 |  |  |  |
| CCCC(=O)SCCNC(=O)CCNC(=O)[C@H](O)C(C)(C)COP(=O)(O)OP(=O)(O)OC[C@H]1O[C@@H](n2cnc3c(N)ncnc32)[C@H](O)[C@@H]1OP(=O)(O)O [Butyryl-coA] |  |  |  | Activity as acyl-donor of YncA (in words) (YncA; methionine as substrate): weak activities; % Activity (activity of YncA with respect to the co-substrate Acetyl-coA) (YncA; methionine as substrate): 17%; Specific Activity (YncA; [5]): 129 mUI/mg protein |
| N[C@@H](CCC(=O)O)C(=O)O [Glutamate] | 0.6 | 4 | Weak activities |  |
| NC(=O)CC[C@H](N)C(=O)O [Glutamine] | 1.4 | 10 | Weak activities |  |
| NCCCC[C@H](N)C(=O)O [Lysine] | 1.6 | 12 | Weak activities |  |
| CS(=O)(=O)CC[C@H](N)C(=O)O [Methionine sulfone] | 178.8 | 1332 | Strong activities |  |
| C[S+]([O-])CC[C@H](N)C(=O)O (stereo partly drawn) [Methionine sulfoxide] | 147.6 | 1100 | Strong activities |  |
| CS(=N)(=O)CC[C@H](N)C(=O)O (stereo partly drawn) [Methionine sulfoximine] | 166.9 | 1243 | Strong activities |  |
| CSCC[C@H](N)C(=O)O [Methionine] | 100 | 745 | Strong activities | Acetylation by Pseudomonas PA4866 protein [1]: did not acetylate |
| CSCC[C@@H](NC(C)=O)C(=O)O [N-acetyl-D-methionine] |  |  |  | Incorporation by animals [2]: not incorporated as well as its L-isomer |
| CSCC[C@H](NC(C)=O)C(=O)O [NAM, N-acetyl-L-methionine] |  |  |  | Methionine-sparing value [3]: same methionine-sparing value as pure methionine |
| CCC(=O)SCCNC(=O)CCNC(=O)[C@H](O)C(C)(C)COP(=O)(O)OP(=O)(O)OC[C@H]1O[C@@H](n2cnc3c(N)ncnc32)[C@H](O)[C@@H]1OP(=O)(O)O [Propionyl-coA] |  |  |  | Activity as acyl-donor of YncA (in words) (YncA; methionine as substrate): preferred acyl-donor; % Activity (activity of YncA with respect to the co-substrate Acetyl-coA) (YncA; methionine as substrate): 140%; Specific Activity (YncA; [5]): 1039 mUI/mg protein |
| Purified Protein: Purified methionine N-acyl transferase from E. coli, identified as YncA, a GCN5 related acyl transferase, SEQ ID NO: 1 (protein, listed as Escherichia coli) MSIRFARKADCAAIAEIYNHAVLYTAAIWNDQTVDADNRIAWFEARTLAGYPVLVSEENGVVTGYASFGDWRSFDGFRHTVEHSVYVHPDHQGKGLGRKLLSRLIDEARDCGKHVMVAGIESQNQASLHLHQSLGFVVTAQMPQVGTKFGRWLDLTFMQLQLDERTEPDAIG |  |  |  | Specific Activity ([4]; methionine N-acyl transferase activity): 19689 mUI/mg prot; Activity ([4]; total methionine N-acyl transferase activity): 0.126 UI |
